The values that follow come from patent publication US11439622B2 (OXFORD UNIVERSITY INNOVATION LIMITED, priority 2015, dated 2022).

Some results are limits rather than exact numbers.

Assay [1] addresses NDM-1 (New Delhi metallo-β-lactamase-1) (Klebsiella pneumoniae, UniProt C7C422). The assay can be described thus: Enzyme inhibition assay, NDM-1. The assay is classed as biochemical. The settings on record: read-out: pIC50 NDM-1 (converted). On the procedure:
(§1) The biological activity of the compounds of the present invention was tested using standard assay protocols.^7 The following representative enzymes NDM-1 (New Delhi metallo-β-lactamase-1), IMP-1 (Imipenemase-1) and VIM-2 (Veronese metallo-β-lactamase-2) were selected from different clinically relevant B1 metallo-β-lactamases.

The test system of another assay is E. coli EC10 NDM-1. The assay can be described thus: Meropenem MIC, clinically derived strains. The assay is classed as cell-based. The settings on record: inhibitor 10 μg/ml. On the procedure: (§2) CLSI, Wayne, Pa.) in the absence of each inhibitor or in its presence at the concentration stated. In each case the inhibitor solution was added to broth at 0.1% v/v to achieve the required final concentration; DMSO was used to dissolve inhibitors.

Another assay relates to E. coli IR60. Description: Meropenem MIC, CLSI broth microdilution. The assay is classed as cell-based. The settings on record: inhibitor 10 μg/ml. On the procedure:
as §2
(§3) For initial evaluations of the in vitro cell based activity of indole carboxylates we used well characterized bacterial strains (e.g. K. pneumoniae 5055; E. coli ATCC 25713) transformed with broad host range plasmids (e.g. pSU18 and derivatives) encoding few metallo-β-lactamases produced using their physiological (integron) promoters. We also tested a clinical strain, IR60 in the initial studies.^8
IR60 is a clinically strain original from India.^8 IR60 is also a multiresistant clinical strain.
(In broth dilution the organism is exposed to a series of concentrations in liquid medium.)

For the next assay, the target named is IMP-1 (Imipenemase-1) (Serratia marcescens, UniProt P52699). Description: Enzyme inhibition assay, IMP-1. The assay is classed as biochemical. The settings on record: read-out: pIC50 IMP-1 (converted). The protocol:
as §1

The next assay deals with K. pneumoniae 5055 IMP-1. The assay can be described thus: Meropenem MIC, clinically derived strains. The assay is classed as cell-based. On the procedure: as §2
(§4) The results shown in Table 2 reveal that compounds of formula (I) are active in cells, including clinically relevant bacterial strains. Further studies were carried out to determine if compound of formula (I) potentiates BLA activity in clinically derived strains containing IMP-4, […] or NDM-1, which are the most commonly observed MBLs in clinical isolates.

For the next assay, the system named is K. pneumoniae B12 IMP-4. Description: Meropenem MIC, clinically derived strains. Type of assay: cell-based. On the procedure:
as §2, §4

The next assay deals with K. pneumoniae B19 IMP-4. The assay can be described thus: Meropenem MIC, clinically derived strains. Type of assay: cell-based. On the procedure: as §2, §4
Another assay has as its system K. pneumoniae IR16 NDM-1. Description: Meropenem MIC, clinically derived strains. The assay is classed as cell-based. The protocol: as §2, §4
The subject of another assay is K. pneumoniae A34 VIM-4. The assay can be described thus: Meropenem MIC, clinically derived strains. Type of assay: cell-based. The protocol:
as §2, §4

Assay [2] has as its target VIM-2 (Veronese metallo-β-lactamase-2) (Escherichia coli, UniProt Q5U7L7). The assay can be described thus: Enzyme inhibition assay, VIM-2. The assay is classed as biochemical. The settings on record: read-out: pIC50 VIM-2 (converted). On the procedure: as §1
The test system of assay [3] is K. pneumoniae 5055 (control). Description: Meropenem MIC, CLSI broth microdilution. The assay is classed as cell-based. The protocol:
as §2, §3

Assay [4] concerns K. pneumoniae 5055 + NDM-1. The assay can be described thus: Meropenem MIC, CLSI broth microdilution. The assay is classed as cell-based. The settings on record: inhibitor 10 μg/ml. The protocol: as §2, §3
Another assay deals with E. coli 25922 (control). Description: Meropenem MIC, CLSI broth microdilution. The settings on record: inhibitor 10 μg/ml. Type of assay: cell-based. On the procedure:
as §2, §3

Chain of IMP-1 (Imipenemase-1) (P52699 19-246, looked up, species assumed): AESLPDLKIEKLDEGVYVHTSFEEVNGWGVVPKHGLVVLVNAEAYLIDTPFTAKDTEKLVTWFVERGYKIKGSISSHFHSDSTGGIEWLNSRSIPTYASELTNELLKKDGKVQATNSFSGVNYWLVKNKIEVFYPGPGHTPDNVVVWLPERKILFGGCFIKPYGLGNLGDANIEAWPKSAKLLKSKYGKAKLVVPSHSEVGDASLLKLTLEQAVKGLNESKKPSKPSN
Chain of NDM-1 (New Delhi metallo-β-lactamase-1) (C7C422 29-270, looked up, species assumed): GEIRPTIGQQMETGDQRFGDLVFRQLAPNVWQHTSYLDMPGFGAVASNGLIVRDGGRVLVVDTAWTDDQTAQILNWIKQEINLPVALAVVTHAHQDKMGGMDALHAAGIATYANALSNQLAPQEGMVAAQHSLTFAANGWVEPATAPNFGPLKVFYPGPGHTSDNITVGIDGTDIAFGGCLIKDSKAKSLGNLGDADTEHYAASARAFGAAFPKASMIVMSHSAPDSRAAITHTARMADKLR

Take `Cc1cccc2c(-c3ccc(S(C)(=O)=O)cc3)c(C(=O)O)[nH]c12` [Example 12, 7-methyl-3-(4-(methylsulfonyl)phenyl)-1H-indole-2-carboxylic acid]: the IC50 in assay [1] is 12.6 nM; at IMP-1 (Imipenemase-1), 12600 nM; in assay [2] it was 316 nM. Further, the Meropenem MIC in presence of inhibitor is 8 µg/mL with E. coli EC10 NDM-1; under 0.5 µg/mL with E. coli IR60; 8 µg/mL in the assay on K. pneumoniae 5055 IMP-1 (inhibitor 10 μg/ml); 8 µg/mL in the assay on K. pneumoniae B12 IMP-4 (inhibitor 10 μg/ml); 8 µg/mL in the assay on K. pneumoniae B19 IMP-4 (inhibitor 10 μg/ml); 1 µg/mL in the assay with K. pneumoniae IR16 NDM-1 (inhibitor 10 μg/ml). The Meropenem MIC in presence of inhibitor in the assay with K. pneumoniae A34 VIM-4 (inhibitor 10 μg/ml) was 16 µg/mL; in assay [3] (inhibitor 10 μg/ml), under 0.25 µg/mL; in assay [4] it was 8 µg/mL; in the assay with E. coli 25922 (control), under 0.25 µg/mL.
Turning to `C[C@@H](O)[C@H]1C(=O)N2C(C(=O)O)=C(S[C@@H]3CN[C@H](C(=O)N(C)C)C3)[C@H](C)[C@H]12` [Meropenem, meropenem, reference compound], the Meropenem MIC in the assay on K. pneumoniae 5055 IMP-1 (meropenem alone) stood at 16 µg/mL; with K. pneumoniae B12 IMP-4 (meropenem alone), 16 µg/mL; in the assay with K. pneumoniae B19 IMP-4 (meropenem alone) it was 16 µg/mL; in the assay with K. pneumoniae IR16 NDM-1 (meropenem alone) it was 16 µg/mL; in the assay on K. pneumoniae A34 VIM-4 (meropenem alone), 64 µg/mL. Besides, in assay [3] (meropenem alone), the Meropenem MICs was under 0.25 µg/mL.
For the molecule `CNS(=O)(=O)c1ccc(-c2c(C(=O)O)[nH]c3c(C(C)C)cccc23)cc1` [Example 88, 7-isopropyl-3-(4-(N-methylsulfamoyl)phenyl)-1H-indole-2-carboxylic acid], the IC50 is 4.27 nM in assay [1], 53.7 nM on IMP-1 (Imipenemase-1) and 10.2 nM in assay [2].
Take `O=C(O)c1[nH]c2c(Cl)cccc2c1-c1ccc(F)cc1` [Example 54, 7-chloro-3-(4-fluorophenyl)-1H-indole-2-carboxylic acid]: the IC50 in assay [1] was 251 nM; on IMP-1 (Imipenemase-1), 31600 nM; in assay [2] it was 794 nM.
On the same counts, the results for `Cc1cccc2c(-c3cccc(C(F)(F)F)c3)c(C(=O)O)[nH]c12` [Example 44, 7-methyl-3-(3-(trifluoromethyl)phenyl)-1H-indole-2-carboxylic acid] are 31.6 nM, 3980 nM and 200 nM.
As for `CC(C)c1cccc2c(-c3ccc(Cn4cccn4)cc3)c(C(=O)O)[nH]c12` [Example 79, 3-(4-((1H-pyrazol-1-yl)methyl)phenyl)-7-isopropyl-1H-indole-2-carboxylic acid], the IC50 in assay [1] was 0.501 nM; at IMP-1 (Imipenemase-1), 15.8 nM; in assay [2], 3.98 nM.
The corresponding values for `Cc1cccc2c(Cc3ccc(Cl)cc3)c(C(=O)O)[nH]c12` [Example 107, 3-[(4-chlorophenyl)methyl]-7-methyl-1H-indole-2-carboxylic acid] are 631 nM, 3980 nM and 1580 nM.
In the case of `Cc1cccc2c(-c3ccc(N)cc3)c(C(=O)O)[nH]c12` [Example 23, 3-(4-aminophenyl)-7-methyl-1H-indole-2-carboxylic acid], the IC50 in [1] was 31.6 nM; on IMP-1 (Imipenemase-1), 7940 nM; in assay [2], 1000 nM.
In the case of `CC(C)c1cccc2c(-c3ccccc3)c(C(=O)O)[nH]c12` [Example 66, 7-isopropyl-3-phenyl-1H-indole-2-carboxylic acid], the IC50 is 5.01 nM in assay [1], 31.6 nM at IMP-1 (Imipenemase-1) and 31.6 nM in [2].
